# Experimental data reported in patent US20100028889A1, “COMPANION DIAGNOSTIC ASSAYS FOR CANCER THERAPY” (ABBOTT LABORATORIES, priority 2006, published 2010).
# Where two headings read alike, the source gives them in different places.
# How the values were obtained:
# Experiment in all cases: sensitivity of SCLC cell line, procedure of Oltersdorf
# Format in all cases: cell-based
# DMS 114 = details: Homo sapiens, read-out: sensitivity class by EC50
# Description: (§1) The following SCLC cell lines were obtained from ATCC (Manassis, Va.): NCI-H889, NCI-H1963, NCI-H1417, NCI-H146, NCI-H187, DMS53, NCI-H510, NCI-H209, NCI-H211, NCI-H345, NCI-H524, NCI-H69, DMS79, SHP77, NCI-H1688, NCI-H446, NCI-H740, NCI-H1048, NCI-H82, NCI-H196, SW1271, H69AR, NCI-H526, NCI-H865, NCI-H748, NCI-H711, and DMS114. All cells were cultured in the ATCC recommended media at 37° C. in a humidified atmosphere containing 5% CO2. The following leukemia and lymphoma cell lines were obtained from ATCC (Manassis, Va.): MV-4-11, RS4;11, Loucy, KG-1A, DOHH2, Rs11380, CCRF-HSB-2, CCRF-CEM, CEM/C1, Reh, SUP-B15, MOLT-4, SUDHL4, HL-60, RPMI 8226, A3, Daudi, WSU-NHL, Pfeiffer, Jurkat I 9.2, Jurkat, MEG-01, U-937, K-562, and Raji.
# (§2) The 27 SCLC cell lines were tested for sensitivity to ABT-737 using the procedure described in Oltersdorf, T., “An inhibitor of Bcl-2 family proteins induces regression of solid tumours”, Nature, 435: 677-681, 2005, with a cell line classified as sensitive if its EC50<5 μM and as resistant if its EC50>5 µM. The sensitive cell line group consisted of NCI-H889, NCI-H1963, NCI-H1417, NCI-H146, DMS 53, NCI-H187, NCI-H510, NCI-H209, NCI-H345, NCI-H526, NCI-H211, NCI-H865, NCI-H524, NCI-H748, DMS 79, NCI-H69, NCI-H711, SHP 77, NCI-H1688, and the resistant cell line group was comprised of NCI-H446, NCI-H740, NCI-H1048, NCI-H82, NCI-H196, SW1271, DMS 114, and NCI-H69AR.
# (§3) The 22 SCLC cell lines were tested for sensitivity to ABT-263 using the procedure described in Oltersdorf, T., “An inhibitor of Bcl-2 family proteins induces regression of solid tumours”, Nature, 435: 677-681, 2005, with a cell line classified as sensitive if its EC50<5 µM and as resistant if its EC50>5 μM. The sensitive cell line group consisted of NCI-H146, NCI-H889, NCI-H1963, NCI-H187, NCI-H1417, NCI-H211, NCI-H69, NCI-H209, NCI-H510, DMS 53, DMS 79, NCI-H345, NCI-H1048, SHP 77, NCI-H446 and the resistant cell line group was comprised of NCI-H1688, NCI-H740, NCI-H82, NCI-H69AR, SW1271, DMS 114 and NCI-H 196.
# DMS 53 = details: Homo sapiens, read-out: sensitivity class by EC50
# Description: as §1, §2, §3
# DMS 79 = details: Homo sapiens, read-out: sensitivity class by EC50
# Description: as §1, §2, §3
# NCI-H1048 = details: Homo sapiens, read-out: sensitivity class by EC50
# Description: as §1, §2, §3
# NCI-H1417 = details: Homo sapiens, read-out: sensitivity class by EC50
# Description: as §1, §2, §3
# NCI-H146 = details: Homo sapiens, read-out: sensitivity class by EC50
# Description: as §1, §2, §3
# NCI-H1688 = details: Homo sapiens, read-out: sensitivity class by EC50
# Description: as §1, §2, §3
# NCI-H187 = details: Homo sapiens, read-out: sensitivity class by EC50
# Description: as §1, §2, §3
# NCI-H1963 = details: Homo sapiens, read-out: sensitivity class by EC50
# Description: as §1, §2, §3
# NCI-H196 = details: Homo sapiens
# Description: as §1, §2, §3
# NCI-H209 = details: Homo sapiens, read-out: sensitivity class by EC50
# Description: as §1, §2, §3
# NCI-H211 = details: Homo sapiens, read-out: sensitivity class by EC50
# Description: as §1, §2, §3
# NCI-H345 = details: Homo sapiens, read-out: sensitivity class by EC50
# Description: as §1, §2, §3
# NCI-H446 = details: Homo sapiens, read-out: sensitivity class by EC50
# Description: as §1, §2, §3
# NCI-H510 = details: Homo sapiens, read-out: sensitivity class by EC50
# Description: as §1, §2, §3
# NCI-H69AR = details: Homo sapiens, read-out: sensitivity class by EC50
# Description: as §1, §2, §3
# NCI-H69 = details: Homo sapiens, read-out: sensitivity class by EC50
# Description: as §1, §2, §3
# NCI-H740 = details: Homo sapiens, read-out: sensitivity class by EC50
# Description: as §1, §2, §3
# NCI-H82 = details: Homo sapiens, read-out: sensitivity class by EC50
# Description: as §1, §2, §3
# NCI-H889 = details: Homo sapiens, read-out: sensitivity class by EC50
# Description: as §1, §2, §3
# SHP 77 = details: Homo sapiens, SHP77, read-out: sensitivity class by EC50
# Description: as §1, §2, §3
# SW1271 = details: Homo sapiens, read-out: sensitivity class by EC50
# Description: as §1, §2, §3
EC50 (DMS 114) [µM],EC50 (DMS 53) [µM],EC50 (DMS 79) [µM],EC50 (NCI-H1048) [µM],EC50 (NCI-H1417) [µM],EC50 (NCI-H146) [µM],EC50 (NCI-H1688) [µM],EC50 (NCI-H187) [µM],EC50 (NCI-H1963) [µM],EC50 (NCI-H209) [µM],EC50 (NCI-H211) [µM],EC50 (NCI-H345) [µM],EC50 (NCI-H446) [µM],EC50 (NCI-H510) [µM],EC50 (NCI-H69AR) [µM],EC50 (NCI-H69) [µM],EC50 (NCI-H740) [µM],EC50 (NCI-H82) [µM],EC50 (NCI-H889) [µM],EC50 (SHP 77) [µM],Structure (SMILES),also measured
> 5,< 5,< 5,< 5,< 5,< 5,> 5,< 5,< 5,< 5,< 5,< 5,< 5,< 5,> 5,< 5,> 5,> 5,< 5,< 5,"CC1(C)CCC(c2ccc(Cl)cc2)=C(CN2CCN(c3ccc(C(=O)NS(=O)(=O)c4ccc(N[C@H](CCN5CCOCC5)CSc5ccccc5)c(S(=O)(=O)C(F)(F)F)c4)cc3)CC2)C1 [ABT-263, N-(4-(4-((2-(4-chlorophenyl)-5,5-dimethyl-1-cyclohex-1-en-1-yl)methyl)piperazin-1-yl)benzoyl)-4-(((1R)-3-(morpholin-4-yl)-1-((phenylsulfanyl)methyl)propyl)amino)-3-((trifluoromethyl)sulfonyl)benzenesulfonamide]","EC50 (NCI-H196; NCI-H 196, read-out: sensitivity class by EC50): > 5 µM; EC50 (SW1271): > 5 µM"
> 5,< 5,< 5,> 5,< 5,< 5,< 5,< 5,< 5,< 5,< 5,< 5,> 5,< 5,> 5,< 5,> 5,> 5,< 5,< 5,"CN(C)CC[C@H](CSc1ccccc1)Nc1ccc(S(=O)(=O)NC(=O)c2ccc(N3CCN(Cc4ccccc4-c4ccc(Cl)cc4)CC3)cc2)cc1[N+](=O)[O-] [ABT-737, N-(4-(4-((4′-chloro(1,1′-biphenyl)-2-yl)methyl)piperazin-1-yl)benzoyl)-4-(((1R)-3-(dimethylamino)-1-((phenylsulfanyl)methyl)propyl)amino)-3-nitrobenzenesulfonamide]",EC50 (NCI-H196; read-out: sensitivity class by EC50): > 5 µM; EC50 (SW1271): > 5 µM
